Experimental data from ChEMBL document CHEMBL1143799, “Synthesis and primary cytotoxicity evaluation of new imidazo[2,1-b]thiazole derivatives” (2007).

Legend:
Type in all cases: functional
EKVX = assay: Growth inhibition of human EKVX cells after 48 hrs by SRB protein assay
KM12 = assay: Growth inhibition of human KM12 cells after 48 hrs by SRB protein assay; settings: KM12, 48 h
RPMI-8226 = assay: Growth inhibition of human RPMI8226 cells after 48 hrs by SRB protein assay; settings: RPMI-8226, 48 h
[1] = Growth inhibition of human 786O cells after 48 hrs by SRB protein assay; settings: 786-0, 48 h
SF-268 = assay: Growth inhibition of human SF268 cells after 48 hrs by SRB protein assay; settings: SF-268, 48 h
DU-145 = assay: Growth inhibition of human DU145 cells after 48 hrs by SRB protein assay; settings: DU-145, 48 h
A549 = assay: Growth inhibition of human A549 cells after 48 hrs by SRB protein assay; settings: A549, 48 h
BT-549 = assay: Growth inhibition of human BT549 cells after 48 hrs by SRB protein assay; settings: BT-549, 48 h
CCRF-CEM = assay: Growth inhibition of human CCRF-CEM cells after 48 hrs by SRB protein assay
SK-MEL-28 = assay: Growth inhibition of human SK-MEL-28 cells after 48 hrs by SRB protein assay; settings: SK-MEL-28, 48 h
NCI-H460 = assay: Growth inhibition of human NCI-H460 cells after 48 hrs by SRB protein assay; settings: NCI-H460, 48 h
SNB-75 = assay: Growth inhibition of human SNB75 cells after 48 hrs by SRB protein assay; settings: SNB-75, 48 h
SW-620 = assay: Growth inhibition of human SW620 cells after 48 hrs by SRB protein assay; settings: SW-620, 48 h
HT-29 = assay: Growth inhibition of human HT29 cells after 48 hrs by SRB protein assay; settings: HT-29, 48 h
HCC 2998 = assay: Growth inhibition of human HCC2998 cells after 48 hrs by SRB protein assay; settings: HCC 2998, 48 h
LOX IMVI = assay: Growth inhibition of human LOX IMVI cells after 48 hrs by SRB protein assay
UACC-257 = assay: Growth inhibition of human UACC257 cells after 48 hrs by SRB protein assay; settings: UACC-257, 48 h
NCI-H322M = assay: Growth inhibition of human NCI-H322M cells after 48 hrs by SRB protein assay
MDA-MB-435 = assay: Growth inhibition of human MDA-MB-435 cells after 48 hrs by SRB protein assay; settings: MDA-MB-435, 48 h
NCI-H522 = assay: Growth inhibition of human NCI-H522 cells after 48 hrs by SRB protein assay; settings: NCI-H522, 48 h
SN12C = assay: Growth inhibition of human SN12C cells after 48 hrs by SRB protein assay
M14 = assay: Growth inhibition of human M14 cells after 48 hrs by SRB protein assay; settings: M14, 48 h
SNB-19 = assay: Growth inhibition of human SNB19 cells after 48 hrs by SRB protein assay; settings: SNB-19, 48 h
SF-295 = assay: Growth inhibition of human SF295 cells after 48 hrs by SRB protein assay; settings: SF-295, 48 h
UO-31 = assay: Growth inhibition of human UO31 cells after 48 hrs by SRB protein assay; settings: UO-31, 48 h
UACC-62 = assay: Growth inhibition of human UACC62 cells after 48 hrs by SRB protein assay; settings: UACC-62, 48 h
PC-3 = assay: Growth inhibition of human PC3 cells after 48 hrs by SRB protein assay; settings: PC-3, 48 h
NCI-H23 = assay: Growth inhibition of human NCI-H23 cells after 48 hrs by SRB protein assay; settings: NCI-H23, 48 h
SK-OV-3 = assay: Growth inhibition of human SK-OV-3 cells after 48 hrs by SRB protein assay; settings: SK-OV-3, 48 h
HCT-15 = assay: Growth inhibition of human HCT15 cells after 48 hrs by SRB protein assay; settings: HCT-15, 48 h
SF-539 = assay: Growth inhibition of human SF539 cells after 48 hrs by SRB protein assay; settings: SF-539, 48 h
SK-MEL-5 = assay: Growth inhibition of human SK-MEL-5 cells after 48 hrs by SRB protein assay; settings: SK-MEL-5, 48 h
Hs-578T = assay: Growth inhibition of human HS578T cells after 48 hrs by SRB protein assay
HCT-116 = assay: Growth inhibition of human HCT116 cells after 48 hrs by SRB protein assay; settings: HCT-116, 48 h
MCF7 = assay: Growth inhibition of human MCF7 cells after 48 hrs by SRB protein assay; settings: MCF7, 48 h
COLO 205 = assay: Growth inhibition of human COLO205 cells after 48 hrs by SRB protein assay; settings: COLO 205, 48 h
HOP-62 = assay: Growth inhibition of human HOP62 cells after 48 hrs by SRB protein assay; settings: HOP-62, 48 h
RXF 393 = assay: Growth inhibition of human RXF393 cells after 48 hrs by SRB protein assay; settings: RXF 393, 48 h, read-out: Log TGI (converted)
CAKI-1 = assay: Growth inhibition of human CAKI1 cells after 48 hrs by SRB protein assay; settings: CAKI-1, 48 h

`O=C(Cc1csc2nc(-c3ccc(Br)cc3)cn12)N/N=C/c1ccc(O)cc1` gave a GI50 (EKVX) of 11.5 µM, a TGI (EKVX; read-out: Log TGI (converted)) of 66.1 µM and a GI50 (KM12) of 17.8 µM. The TGI (KM12; read-out: Log TGI (converted)) was 75.9 µM, the GI50 (RPMI-8226) was 4.27 µM and the TGI (RPMI-8226; read-out: Log TGI (converted)) was 39.8 µM. For the same compound, the GI50 [1] was 26.3 µM, the TGI ([1]; read-out: Log TGI (converted)) was 89.1 µM and the GI50 (SF-268) was greater than 100 µM. It also gave a TGI (SF-268; read-out: Log TGI (converted)) greater than 100 µM, a GI50 (DU-145) of 22.4 µM and a TGI (DU-145; read-out: Log TGI (converted)) of 87.1 µM. For the same compound, the GI50 (A549) was 10.7 µM, the TGI (A549; read-out: Log TGI (converted)) was 33.9 µM and the GI50 (BT-549) was 13.5 µM. The TGI (BT-549; read-out: Log TGI (converted)) was 56.2 µM, the GI50 (CCRF-CEM) was 12.3 µM and the TGI (CCRF-CEM; read-out: Log TGI (converted)) was 79.4 µM. For the same compound, the GI50 (SK-MEL-28) was 60.3 µM, the TGI (SK-MEL-28; read-out: Log TGI (converted)) was 100 µM and the GI50 (NCI-H460) was 57.5 µM. For the same compound, the TGI (NCI-H460; read-out: Log TGI (converted)) was greater than 100 µM, the GI50 (SNB-75) was greater than 100 µM and the TGI (SNB-75; read-out: Log TGI (converted)) was greater than 100 µM. For the same compound, the GI50 (SW-620) was 31.6 µM, the TGI (SW-620; read-out: Log TGI (converted)) was greater than 100 µM and the GI50 (HT-29) was 50.1 µM. It also gave a TGI (HT-29; read-out: Log TGI (converted)) greater than 100 µM, a GI50 (HCC 2998) of 14.5 µM and a TGI (HCC 2998; read-out: Log TGI (converted)) of 29.5 µM. The GI50 (LOX IMVI) was 11.2 µM, the TGI (LOX IMVI; read-out: Log TGI (converted)) was 26.3 µM and the GI50 (UACC-257) was 1.51 µM. For the same compound, the TGI (UACC-257; read-out: Log TGI (converted)) was 7.76 µM, the GI50 (NCI-H322M) was 4.37 µM and the TGI (NCI-H322M; read-out: Log TGI (converted)) was 34.7 µM. For the same compound, the GI50 (MDA-MB-435) was 6.31 µM, the TGI (MDA-MB-435; read-out: Log TGI (converted)) was 24.5 µM and the GI50 (NCI-H522) was 10.7 µM. It also gave a TGI (NCI-H522; read-out: Log TGI (converted)) of 34.7 µM, a GI50 (SN12C) of 15.5 µM and a TGI (SN12C; read-out: Log TGI (converted)) of 43.7 µM. It also gave a GI50 (M14) of 10.2 µM, a TGI (M14; read-out: Log TGI (converted)) of 23.4 µM and a GI50 (SNB-19) of 57.5 µM. It also gave a TGI (SNB-19; read-out: Log TGI (converted)) greater than 100 µM, a GI50 (SF-295) of 12 µM and a TGI (SF-295; read-out: Log TGI (converted)) of 41.7 µM. It also gave a GI50 (UO-31) of 26.3 µM, a TGI (UO-31; read-out: Log TGI (converted)) greater than 100 µM and a GI50 (UACC-62) of 9.12 µM. It also gave a TGI (UACC-62; read-out: Log TGI (converted)) of 23.4 µM, a GI50 (PC-3) of less than 0.01 µM and a TGI (PC-3; read-out: Log TGI (converted)) of 23.4 µM. The GI50 (NCI-H23) was 7.59 µM, the TGI (NCI-H23; read-out: Log TGI (converted)) was 32.4 µM and the GI50 (SK-OV-3) was 52.5 µM. For the same compound, the TGI (SK-OV-3; read-out: Log TGI (converted)) was greater than 100 µM, the GI50 (HCT-15) was 17.8 µM and the TGI (HCT-15; read-out: Log TGI (converted)) was 61.7 µM. The GI50 (SF-539) was 18.2 µM, the TGI (SF-539; read-out: Log TGI (converted)) was 46.8 µM and the GI50 (SK-MEL-5) was 7.08 µM. It also gave a TGI (SK-MEL-5; read-out: Log TGI (converted)) of 22.4 µM, a GI50 (Hs-578T) of 23.4 µM and a TGI (Hs-578T; read-out: Log TGI (converted)) of 93.3 µM. For the same compound, the GI50 (HCT-116) was 10.5 µM, the TGI (HCT-116; read-out: Log TGI (converted)) was 24 µM and the GI50 (MCF7) was 63.1 µM. For the same compound, the TGI (MCF7; read-out: Log TGI (converted)) was greater than 100 µM, the GI50 (COLO 205) was 43.7 µM and the TGI (COLO 205; read-out: Log TGI (converted)) was greater than 100 µM. It also gave a GI50 (HOP-62) of 18.2 µM, a TGI (HOP-62; read-out: Log TGI (converted)) of 53.7 µM and a TGI (RXF 393) of 40.7 µM. For the same compound, the GI50 (CAKI-1) was 14.8 µM and the TGI (CAKI-1; read-out: Log TGI (converted)) was 49 µM.
